According to patent US9371301B2, “Prenylarene compound and use thereof” (Osaka University, priority 2010, dated 2016):
Entries after “also recorded” stand apart in the source; their conditions may differ.

Assays:
Mouse sarcoma S180 cells [1] = experiment: Antitumor activity in mouse cancer cell transplant model; type: in vivo; conditions: ddY mice; for tumor weight, % of that of the control group / weight loss, diarrhea, visual abnormalities in organs: once every two days, 7 times; for tumor weight, % of that of the control group: S180; for weight loss, diarrhea, visual abnormalities in organs: all dose groups; for weight loss, diarrhea, visual abnormalities in organs / antitumor activity: oral; for antitumor activity: S180 transplant model
Method: A suspension of the test compound analog-k5 was prepared at predetermined concentrations in 1% CMC. The vehicle (1% CMC) was administered to the control group.
Mouse sarcoma S180 cells were prepared as a suspension of the density of 1×10^7 cells/mL in a serum-free RPMI culture medium and the suspension was kept on ice. Then, 100 μL (1×10^6 cells) each of the cell suspension was subcutaneously inoculated to the ventral side in female ddY mice (5-week old, six mice/group) with an injection needle of 23G. The mice were maintained for one week for engraftment of the […]. The test compound (10 mg/kg, 25 mg/kg and 50 mg/kg) or the vehicle (1% CMC) was orally administered on a schedule of once every two days, 7 times in total. The antitumor activity was evaluated as follows: one day after the final administration, tumors were isolated and weighed and then the tumor weight was compared between the test compound administration groups and the control group. Significance analysis was performed using a Dunnett's test at a significance level of 5%.
Analog-f9, which is represented by formula (VI), and analog-k13, which is represented by formula (CI), were used as the test compounds, and both were evaluated for the antitumor activity in a mouse cancer cell transplant model according to the same method as described in Example 6. However, the number of mice per group was changed to four, and the doses of test compounds were changed to 3 mg/kg, 10 mg/kg and 25 mg/kg.

[2] = test system: human prostate cancer DU145 cells; experiment: Inhibitory activity on normoxic cell growth (MTT); type: cell-based; conditions: for inhibitory activity on normoxic cell growth / inhibitory activity on normoxic cell growth as compared with furospinosulin-1: DU145; for inhibitory activity on normoxic cell growth as compared with furospinosulin-1: in a high dose
Method: (§1) Analog-k5, which is represented by formula (II), and analog-k6, which is represented by formula (III), were used as test compounds and furospinosulin-1 was used as the control compound. The test compounds and the control compound were separately dissolved in EtOH, and the respective solutions were prepared at predetermined concentrations. The cells used were human prostate cancer DU145 cells. Analog-k6 was synthesized according to the method described in Example 1 for synthesis of analog-k5 except for using 3-bromothiophene instead of 3-bromofuran.
Meanwhile, the inhibitory activity of the test compounds on normoxic cell growth was measured in the following manner. To each well of 96-well multiwell plates, 200 μL (1×10^4 cells/well) of a DU145 cell suspension was added, and culture was performed under conditions of 5% CO2 and 37° C. for 12 hours. Then, the test compound solutions in EtOH were added to the corresponding wells in a volume of 2 μL per well, and culture was further continued under the same conditions for 24 hours. After 24 hours of culture, as is the case in hypoxic conditions, the MTT reagent was added and finally the ratio of growth inhibition was calculated.
(§2) Analog-f9, which is represented by formula (VI), and analog-k13, which is represented by formula (CI), were used as the test compounds, and both were evaluated for the selective inhibitory activity on hypoxic cancer cell growth according to the same method as described in Example 5.

[3] = test system: human prostate cancer DU145 cells; experiment: Selective inhibitory activity on hypoxic cancer cell growth (MTT, hypoxic conditions 1% O2); type: cell-based; conditions: for selective inhibitory activity on hypoxic cell growth: 24 h, MTT
Method: as §1
To each well of 96-well multiwell plates, 200 μL (1×10^4 cells/well) of a DU145 cell suspension was added, and preculture was performed under conditions of 5% CO2 and 37° C. for 4 hours. Then, the multiwell plates were placed in a hypoxic culture chamber (manufactured by Mitsubishi Gas Chemical Company, Inc.) of 1% O2, 5% CO2 and 94% N2 (hypoxic conditions) and culture was performed for 12 hours. Then, the test compound solutions in EtOH were added to the corresponding wells in a volume of 2 μL per well, and culture was further continued under hypoxic conditions for 24 hours. After 24 hours of culture, MTT (3-(4,5-dimethylthiazol-2-yl)-2,5-diphenyltetrazolium bromide) reagent prepared at 200 μg/mL was added in a volume of 50 μL per well, and culture was performed under conditions of 5% CO2 and 37° C. for 3 hours. Next, after removal of the culture medium, the resulting MTT formazan was extracted with 200 μL of DMSO per well. The amount of the formazan dye was quantified by a colorimetric method (OD 560 nm) and the ratio of growth inhibition was calculated.
as §2

[4] = test system: insulin-like growth factor 2 (IGF-2); conditions: mechanism of action; Non Patent Literature 4; cited from earlier work
Mouse sarcoma S180 cells [5] = conditions: mice subcutaneously inoculated with S180 cells; Non Patent Literature 4; cited from earlier work
[6] = test system: human prostate cancer DU145 cells; conditions: Non Patent Literature 4; cited from earlier work
[7] = at 1000 μM, DU145, hypoxic (1% O2) vs normoxic

Structure (SMILES) | tumor weight, % of that of the control group (Mouse sarcoma S180 cells [1]; 10 mg/kg oral) [%] | tumor weight, % of that of the control group (Mouse sarcoma S180 cells [1]; 25 mg/kg oral) [%] | weight loss, diarrhea, visual abnormalities in organs (Mouse sarcoma S180 cells [1]) | inhibitory activity on normoxic cell growth ([2]; concentrations of 10 μM or lower) | inhibitory activity on normoxic cell growth ([2]; concentrations of 100 μM or lower) | inhibitory activity on normoxic cell growth as compared with furospinosulin-1 [2] | selective inhibitory activity on hypoxic cell growth [3, 7] | tumor weight, % of that of the control group (Mouse sarcoma S180 cells [1]; 50 mg/kg oral) [%] | antitumor activity (Mouse sarcoma S180 cells [1]) | tumor weight, % of that of the control group (Mouse sarcoma S180 cells [1]; 3 mg/kg oral) [%] | selective inhibition of hypoxic cell growth compared with furospinosulin-1 ([3]; entire range of tested concentrations, DU145) | hypoxia-inducible expression of IGF-2 [4] | in vivo tumor weight as compared with the control (Mouse sarcoma S180 cells [5]) | growth inhibitory activity against normoxic cells ([2]; at 1000 μM, DU145, 24 h, MTT) | selective inhibitory activity on hypoxic cell growth ([3]; concentrations of 300 μM or lower, DU145, hypoxic vs normoxic) | in vitro cancer cell growth inhibition, hypoxia selectivity [6]
CC(C)=CCC/C(C)=C/CC/C(C)=C/CC/C(C)=C/CC/C(C)=C/CCc1ccsc1 [analog-f9] | 29 | 18 | In no administration groups, regardless of the kind of test compound, weight loss or diarrhea, or visual abnormalities in organs of the mice were observed | hardly inhibits normoxic cell growth | remarkably low inhibitory activity on normoxic cell growth | lower inhibitory activity on normoxic cell growth | showed selective inhibitory activity on hypoxic cell growth | – | – | – | – | – | – | – | – | –
CC(C)=CCC/C(C)=C/CC/C(C)=C/CC/C=C/CCc1ccoc1 [analog-k5] | 70 | 41 | In no administration groups, weight loss or diarrhea, or visual abnormalities in organs of the mice were observed | – | – | lower inhibitory activity on normoxic cell growth | showed selective inhibitory activity on hypoxic cell growth | 28 | showed marked antitumor activity | – | – | – | – | – | – | –
CC(C)=CCC/C(C)=C/CC/C(C)=C/CC/C=C/CCc1ccsc1 [analog-k6] | – | – | – | – | – | lower inhibitory activity on normoxic cell growth | showed selective inhibitory activity on hypoxic cell growth | – | – | – | – | – | – | – | – | –
C#CCC/C(C)=C/CC/C(C)=C/CC/C(C)=C/CC/C(C)=C/CCc1ccoc1 [analog-k13] | 41 | 28 | In no administration groups, regardless of the kind of test compound, weight loss or diarrhea, or visual abnormalities in organs of the mice were observed | – | – | lower inhibitory activity on normoxic cell growth | showed selective inhibitory activity on hypoxic cell growth | – | showed marked antitumor activity | 70 | stronger than that of furospinosulin-1 | – | – | – | – | –
CC(C)=CCC/C(C)=C/CC/C(C)=C/CC/C(C)=C/CCc1ccoc1 [furospinosulin-1, reference compound] | – | – | – | – | – | – | equal growth inhibitory activity against normoxic cells and hypoxic cells; also recorded: not selective for hypoxic cells | – | – | – | – | inhibition of hypoxia-inducible expression of insulin-like growth factor 2 (IGF-2) | significantly reduces in vivo tumor weight | showed growth inhibitory activity even against normoxic cells | showed selective inhibitory activity on hypoxic cell growth | inhibits in vitro cancer cell growth in a hypoxia-selective manner
